US11007250B2, “Methods and kits for treating pain” (Duke University, priority 2017, dated 2021)

What was measured:
[1] = tested on: dissociated small-diameter mouse DRG neurons; assay: Whole-cell patch clamp recordings in dissociated mouse DRG neurons; assay type: cell-based; conditions: SSG 11 μM
Experimental: Whole-cell patch clamp recordings in dissociated mouse DRG neuron. DRGs were aseptically removed from 4-7 week-old mice and digested with collagenase (0.2 mg/ml, Roche)/dispase-II (3 mg/ml, Roche) for 120 min. Cells were placed on glass cover slips coated with poly-D-lysine and grown in a neurobasal defined medium (10% fetal bovine serum and 2% B27 supplement) at 37° C. with 5% CO2/95% air for 24 h before experiments. Whole-cell voltage clamp recordings were performed at room temperature to measure transient sodium currents and action potentials, respectively, with an EPC10 amplifier (HEKA) and an Axopatch-200B amplifier with a Digidata 1440A (Axon Instruments) (Xu, Z Z, et al. 2015). The patch pipettes were pulled from borosilicate capillaries (Chase Scientific Glass Inc.). When filled with the pipette solution, the resistance of the pipettes was 4-5 MQ. The recording chamber (300 μl) was continuously superfused (3-4 ml/min). Series resistance was compensated for (>80%), and leak subtraction was performed. Data were low-pass-filtered at 2 KHz, sampled at 10 KHz. The pClamp10 (Axon Instruments) software was used during experiments and analysis. For sodium current recording, pipette solution contained (in mM): CsCl 130, NaCl 9, MgCl2 1, EGTA 10, HEPES 10, adjusted to pH 7.4 with CsOH. […] RMP was measured without a current injection.

[2] = tested on: phosphorylation of SHP-1 (pSHP-1); assay: pSHP-1 immunostaining in mouse DRG neurons; assay type: cell-based; conditions: dissociated DRG neurons; PD-L1 10 ng/ml, SSG 11 μM
[3] = tested on: melanoma-bearing mice; assay: Mouse melanoma model: spontaneous pain, von Frey test, CPP; assay type: in vivo; conditions: for spontaneous pain (licking/flinching) in melanoma-bearing mice: SSG 5 μg i.pl.
[4] = tested on: TREK2 in CHO cells co-expressing PD-1 and TREK2; assay: Patch clamp recordings in transfected CHO cells; assay type: cell-based; conditions: SSG
Experimental: CHO cell culture, transfection and electrophysiology. CHO cell line was purchased from Duke Cell Culture Facility. Cells were cultured in high glucose (4.5 g/L) Dulbecco's Modified Eagle's Medium containing 10% (v/v) fetal bovine serum (Gibco). Transfection (1 μg cDNA) was performed with Lipofectamine™ 2000 Reagent (Invitrogen) at 70% confluency and the transfected cells were cultured in the same growth medium for 48 h before electrophysiological and biochemical studies. PD1/PDCD1 cDNA construct (SC117011, NM_005018) and TREK2/KCNK10 cDNA construct (SC110477, NM_021161) were purchased from Origene Technologies.
Whole-cell patch clamp recordings in transfected CHO cells were conducted at room temperature using patch pipettes with resistances of 5-6 MD. The recording chamber was continuously superfused (3-4 ml/min). The data were acquired at a rate of 10 kHz and filtered at 3 kHz using an EPC-10 amplifier (HEKA, Germany). Pipette solution contained (in mM): K-gluconate 126, NaCl 10, MgCl2 1, EGTA 10, NaATP 2, and MgGTP 0.1, adjusted to pH 7.3 with KOH. The external solution was composed of (in mM): NaCl 140, KCl 5, CaCl2 2, MgCl2 1, HEPES 10, glucose 10, adjusted to pH 7.4 with NaOH. […] In current-clamp experiments, the resting membrane potential was measured without any membrane potential compensation.

[5] = tested on: naive mice; assay: Basal pain in naive mice (von Frey test, spontaneous pain); assay type: in vivo, mouse
[6] = tested on: small-diameter human DRG neurons; assay: Patch clamp recordings in dissociated human DRG neurons; assay type: cell-based; conditions: SSG 11 μM
Experimental: Primary cultures and patch clam recordings in human DRG neurons. Non-diseased human DRGs were obtained from donors through NDRI with permission of exemption from Duke IRB. Postmortem L3-L5 DRGs were dissected from 5 male donors at the age of 27, 31, 43, 54, and 67 and delivered in ice-cold culture medium to the laboratory at Duke University within 24-72 hours of death. Upon the delivery, DRGs were rapidly dissected from nerve roots and minced in a calcium-free HBSS (Gibco). Human DRG cultures were prepared as previously reported (Xu, Z Z, et al. 2015). DRGs were digested at 37° C. in humidified O2 incubator for 120 min with collagenase Type II (Worthington, 285 units/mg, 12 mg/ml final concentration) and dispase II (Roche, 1 unit/mg, 20 mg/ml) in PBS with 10 mM HEPES, pH adjusted to 7.4 with NaOH. DRGs were mechanically dissociated using fire-polished pipettes, filtered through a […] nylon mesh and centrifuged (500×g for 5 min). The pellet was resuspended, plated on 0.5 mg/ml poly-D-lysine-coated glass coverslips, and cells were grown in Neurobasal medium supplemented with 10% FBS, 2% B-27 supplement, 1% N-2 supplement, and 1% penicillin/streptomycin. Whole-cell patch clamp recordings in small-diameter DRG neurons (<55 μm) were conducted at room temperature using patch pipettes with resistances of 2-3 MD. […] The resting membrane potential was measured without a current injection.

[7] = tested on: mice; assay: Tail-flick and hot-plate tests of morphine antinociception; assay type: in vivo, mouse; conditions: morphine 10 mg/kg s.c.
Experimental: Tail-flick test. All animals were habituated to testing environment for at least 2 days before baseline testing. Mice were gently held by a hand with a terry glove and with tails exposed. The distal 3 cm of the tail was immersed into the 50° C. hot water. The tail-flick latency was the time required for a mouse to flick or remove its tail out of the water. A maximum cut-off value of 15 seconds was set to avoid thermal injury. Tail-flick latency was determined both before and after drug injection. Data are expressed as the maximum possible effect (MPE) calculated as MPE (%)=100×[(postdrug response baseline response)/(cutoff response−baseline response)]. The MPE (%) data from each animal were converted to area under the curve (AUC).
Hot-plate test. All animals were habituated to testing environment for at least 2 days before baseline testing. […] A maximum cut-off value of 40 seconds was set to avoid tissue injury. Data are expressed as the maximum possible effect (MPE) calculated as MPE (%)=100×[(postdrug response−baseline response)/(cutoff response−baseline response)]. The MPE (%) data from each animal were converted to area under the curve (AUC).

[8] = tested on: T cell, macrophage and inflammatory cytokine marker mRNA; assay: Quantitative real-time RT-PCR of immune markers in melanoma-bearing hindpaw skin; conditions: 3 h after sPD-1 treatment (5 μg, i.pl.), MCI-4w
[9] = tested on: lamina 110 neurons in spinal cord slices; assay: Patch clamp recordings of sEPSCs in spinal cord slices; assay type: cell-based, mouse; conditions: PD-L1 30 ng/ml, sPD-1 30 ng/ml perfusion; Nivolumab 300 ng/ml, 3 h
[10] = tested on: small-diameter neurons of whole-mount DRG; assay: Whole-cell patch clamp recordings in whole mount DRGs ex vivo; assay type: cell-based, mouse; conditions: WT whole mount DRG; sPD-1 30 ng/ml, Nivolumab 300 ng/ml
Experimental: Whole-cell patch clamp recordings in whole mount DRGs of mice ex vivo. L4-L5 DRGs were carefully removed 4 days after sham surgery or CCI surgery and placed in cold oxygenated ACSF. The connective tissue was gently removed under a microscope and the ganglia were digested with a mixture of 0.4 mg/mL trypsin (Sigma) and 1.0 mg/ml type-A collagenase (Sigma) for 30 min at 37° C. The intact ganglia were then incubated in ACSF oxygenated with 95% O2 and 5% CO2 at 28° C. for at least 1 h before transferring them to the recording chamber. DRG neurons were visualized with a 40× water-immersion objective using a BX51WI microscope (Olympus). Whole-cell current and voltage recordings were acquired with an Axon700B amplifier. Patch pipettes (4-7 MO) were pulled from borosilicate glass capillaries on P-97 puller. The recording chamber (300 μl) was continuously superfused (3-4 ml/min). Series resistance was compensated for (>80%), and leak subtraction was performed. The pipette solution contained (in mM): 140 KCl, 2 MgCl2, 10 Hepes, 2 Mg-ATP, pH 7.4. Osmolarity was adjusted to 290-300 mOsm. Data was acquired with a Digidata 1322A acquisition system (molecular devices) using pCLAMP 9.0 software. Signals were low-pass filtered at 5 kHz, sampled at 10 kHz and analyzed offline.

[11] = MCI-4w, sPD-1 5 μg i.pl., siRNA 2 μg peri-sciatic, Nivolumab 3-10 mg/kg i.v., RMP1-14 10 mg/kg i.v.
[12] = i.pl., sPD-1 5 μg, RMP1-14 5 μg, Nivolumab 10 μg

Molecule	effect on PD-L1-induced inhibition of sodium currents [1]	effect on PD-L1-induced SHP-1 phosphorylation [2]	spontaneous pain (licking/flinching) in melanoma-bearing mice [3, 11]	effect on PD-L1-induced RMP change ([4]; CHO cells co-expressing PD-1 and TREK2)	effect on PD-L1 potentiation of TREK2 currents and Erev shift ([4]; PD-1/TREK2 co-expressing CHO cells)	effect on analgesic effect of PD-L1 ([5]; i.pl. SSG plus PD-L1, naive mice)	effect on PD-L1-induced inhibition of sodium currents [6]	analgesic effect of morphine after human IgG ([7]; human IgG i.v.)	analgesic effect of morphine in Pd1−/− mice compared to WT [7]	mechanical allodynia in melanoma-bearing mice [3, 11]	conditioned place preference (CPP), ongoing pain ([3]; i.pl. sPD-1, two-chamber test)	onset of spontaneous pain after injection ([3]; sPD-1 5 μg i.pl., MCI-4w) [min]	mRNA levels of immune/inflammatory markers in hindpaw skin [8]	amplitude of spontaneous EPSCs (sEPSCs) [9]	frequency of spontaneous EPSCs (sEPSCs) [9]	duration of mechanical allodynia in naive mice [5, 12] [h]	mechanical allodynia in naive mice [5, 12]	spontaneous pain in naive mice ([5]; sPD-1 5 μg i.pl.)	firing rate of action potentials [10]
O.O.O.O.O.O.O.O.O.O=C([O-])[C@@H]1[O][Sb]2([O-])([O][Sb]34([OH])[O][C@H]([C@H](O)CO)[C@H]([O]3)[C@H](C(=O)[O-])[O]4)[O][C@H]([C@H](O)CO)[C@@H]1[O]2.[Na+].[Na+].[Na+] [SSG, sodium stibogluconate]	partially blocked	blocked	elicited spontaneous pain	blocked	abolished	abolished	completely blocked												
CN1CC[C@]23c4c5ccc(O)c4O[C@H]2[C@@H](O)C=C[C@H]3[C@H]1C5 [morphine]								typical analgesic effect	reduced analgesic (antinociceptive) effect										
sPD-1: soluble PD-1 used to neutralize PD-L1; Mouse PD-1 from R&D (1021-PD-100)			marked spontaneous pain							induced mechanical allodynia	marked CPP	10 to 30	did not alter	not amplitude	increased sEPSC frequency	3	transient mechanical allodynia	without causing spontaneous pain	increased the firing rate
